Our source for the GI50 and TGI values is PubChem BioAssay (NCI).

Some test systems named below: 786-0 renal; EKVX NSCLC; HCT-116 colon; HS 578T breast; HT29 colon; KM12 colon; LOX IMVI melanoma; OVCAR-3 ovarian; SK-MEL-5 melanoma; UO-31 renal.
Common to all, as to experiment: NCI-60 cell line screen, 48 h

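Where inhibition never reached the appropriate level, the endpoint shown equals the highest concentration tested. Otherwise, values were interpolated linearly from a five-concentration, 48-hour dose response in 96-well plates. Here, GI50 denotes the concentration required for 50% inhibition of growth. TGI is the concentration that stops growth completely.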 A value given as a limit tells only on which side of the number the result lay.

On to `N#Cc1c(N/N=C\c2ccc(Cl)cc2)nc(N)nc1N1CCOCC1`, for which the GI50 in the experiment on 786-0 renal is 67.1 µM; with EKVX NSCLC, 93.9 µM; in the experiment on HCT-116 colon, 29.7 µM; with HS 578T breast, 41.1 µM; in the experiment with HT29 colon, 26.7 µM; with KM12 colon, 36.1 µM. The GI50 in the experiment with LOX IMVI melanoma was 21.6 µM; in the experiment with OVCAR-3 ovarian, 22.5 µM; in the experiment with SK-MEL-5 melanoma, 19 µM; in the experiment with UO-31 renal, 39.6 µM. The TGI with 786-0 renal, in the experiment with EKVX NSCLC, in the experiment with HCT-116 colon, with HS 578T breast, with HT29 colon and in the experiment on KM12 colon was > 100 µM in each case. Further, the TGI in the experiment with LOX IMVI melanoma is 62.4 µM; in the experiment with OVCAR-3 ovarian, 60.5 µM; with SK-MEL-5 melanoma, > 100 µM; in the experiment with UO-31 renal, > 100 µM.

For the compound `O=c1cccc2n1CC1CNC[C@H]2C1`, the TGI in the experiment with 786-0 renal, in the experiment with EKVX NSCLC, in the experiment with HCT-116 colon, in the experiment on HS 578T breast, in the experiment on HT29 colon and in the experiment with KM12 colon was > 100 µM in each case. The TGI in the experiment on LOX IMVI melanoma, in the experiment on OVCAR-3 ovarian, with SK-MEL-5 melanoma and in the experiment with UO-31 renal was > 100 µM in each case.

For `COc1cc(CCNC(=O)OC(C)(C)C)c2c(c1OC)SSSSS2`, the GI50 was 2.08 µM in the experiment on 786-0 renal; 2.69 µM with EKVX NSCLC; 5.51 µM with HCT-116 colon; 3.79 µM with HS 578T breast; 1.86 µM with HT29 colon; 3.67 µM in the experiment with KM12 colon. In addition, the GI50 in the experiment on LOX IMVI melanoma was 2.79 µM; in the experiment on OVCAR-3 ovarian it was 2.65 µM; in the experiment on SK-MEL-5 melanoma it was 1.84 µM; with UO-31 renal, 2.18 µM. Further, the TGI in the experiment with 786-0 renal is 5.56 µM; with EKVX NSCLC, 5.97 µM; with HCT-116 colon, > 100 µM; in the experiment with HS 578T breast it was 32.6 µM; in the experiment on HT29 colon, 4.02 µM; in the experiment with KM12 colon, 12.2 µM. The TGI stood at 6.75 µM in the experiment with LOX IMVI melanoma, 5.51 µM in the experiment with OVCAR-3 ovarian, 3.38 µM in the experiment on SK-MEL-5 melanoma and 5.47 µM with UO-31 renal.

As to `O=[N+]([O-])c1oc2ccc3ccccc3c2c1CCO`, the TGI is > 50 µM in the experiment on 786-0 renal; 2.09 µM in the experiment on EKVX NSCLC; > 29.7 µM in the experiment on HCT-116 colon; 27.7 µM in the experiment with HS 578T breast; 25.7 µM with HT29 colon; 31.5 µM in the experiment with KM12 colon. The TGI with LOX IMVI melanoma was determined as 9.52 µM; in the experiment with OVCAR-3 ovarian, 58.5 µM; in the experiment on SK-MEL-5 melanoma, 1.98 µM; with UO-31 renal, 3.89 µM.

As for `Cc1ccc(OCCOCCOCCOCCOCCOc2ccc(C)n(O)c2=S)c(=S)n1O`, the GI50 is 0.0952 µM in the experiment on 786-0 renal; 0.0392 µM in the experiment on EKVX NSCLC; 0.0302 µM with HCT-116 colon; 1.67 µM in the experiment on HS 578T breast; 0.0585 µM in the experiment with HT29 colon; 0.0573 µM in the experiment on KM12 colon. For the same compound, the GI50 was 0.054 µM in the experiment with LOX IMVI melanoma, 0.0377 µM in the experiment with OVCAR-3 ovarian, 0.0497 µM in the experiment on SK-MEL-5 melanoma and 0.0377 µM in the experiment with UO-31 renal. For the same compound, the TGI in the experiment with 786-0 renal was > 100 µM; with EKVX NSCLC it was > 100 µM; with HCT-116 colon, 27.5 µM; in the experiment on HS 578T breast, 74.6 µM; in the experiment on HT29 colon, > 100 µM; in the experiment on KM12 colon, 39.1 µM. In addition, the TGI with LOX IMVI melanoma came to 21.8 µM; in the experiment with OVCAR-3 ovarian, 18.7 µM; with SK-MEL-5 melanoma, 2.89 µM; in the experiment with UO-31 renal it was 2.02 µM.

Consider `O=S(=O)(NCCCNc1cc(-c2cn(-c3ccccc3)nc2-c2cccc(O)c2)ccn1)c1ccc(Br)cc1`, for which the GI50 in the experiment on 786-0 renal is 1.5 µM; in the experiment on EKVX NSCLC it was 2.29 µM; with HCT-116 colon, 1.71 µM; in the experiment with HS 578T breast, 1.16 µM; in the experiment with HT29 colon, 0.639 µM; in the experiment with KM12 colon, 1.65 µM. Moreover, the GI50 in the experiment on LOX IMVI melanoma was 1.49 µM; in the experiment with OVCAR-3 ovarian, 1.66 µM; with SK-MEL-5 melanoma, 1.27 µM; in the experiment with UO-31 renal, 2.17 µM. For the same compound, the TGI with 786-0 renal was determined as 4.29 µM; with EKVX NSCLC it was 66.4 µM; in the experiment on HCT-116 colon, 4.22 µM; in the experiment on HS 578T breast, 4.82 µM; in the experiment on HT29 colon, 2.35 µM; in the experiment on KM12 colon it was 3.94 µM. Also, the TGI in the experiment on LOX IMVI melanoma came to 2.9 µM; with OVCAR-3 ovarian, 3.61 µM; in the experiment with SK-MEL-5 melanoma, 2.63 µM; with UO-31 renal, 8.95 µM.

`CC1(C)CCC(C)(C)c2cc(NC(=O)c3ccc(C(=O)O)cc3)ccc21`: the TGI in the experiment on 786-0 renal is > 85.4 µM; with EKVX NSCLC, > 100 µM; in the experiment on HCT-116 colon, 55.7 µM; in the experiment on HS 578T breast it was > 83.5 µM; with HT29 colon it was > 95 µM; with KM12 colon, 59.5 µM. Besides, the TGI is 48.3 µM in the experiment with LOX IMVI melanoma, > 57.9 µM in the experiment on OVCAR-3 ovarian, > 93.2 µM with SK-MEL-5 melanoma and 39.5 µM with UO-31 renal.

On to `COC(=O)c1oc2c(C(=O)/C=C/c3ccc(OC)cc3)c(OCCN3CCOCC3)ccc2c1C`, for which the GI50 in the experiment on 786-0 renal is 1.77 µM; in the experiment with EKVX NSCLC, 1.87 µM; with HCT-116 colon, 1.6 µM; in the experiment on HS 578T breast, 1.74 µM; in the experiment with HT29 colon it was 1.94 µM; in the experiment on KM12 colon, 1.77 µM. Moreover, the GI50 was 1.4 µM with LOX IMVI melanoma, 1.89 µM with OVCAR-3 ovarian, 1.69 µM with SK-MEL-5 melanoma and 1.89 µM in the experiment with UO-31 renal. Moreover, the TGI with 786-0 renal turned out to be 4.1 µM; with EKVX NSCLC it was 7.49 µM; with HCT-116 colon it was 4.55 µM; with HS 578T breast, 5.84 µM; in the experiment with HT29 colon, 4.48 µM; in the experiment on KM12 colon, 3.78 µM. Also, the TGI stood at 2.79 µM with LOX IMVI melanoma, 5.69 µM in the experiment on OVCAR-3 ovarian, 3.17 µM with SK-MEL-5 melanoma and 5.25 µM in the experiment on UO-31 renal.
